Measurements: publication PMC7658073 (Clinical Pharmacokinetics, 2020)

Columns and labels:
[1] = Phase I DDI study with sildenafil; type: in vivo, human
OATP1B3 = biological target: T1, OATP1B3 (Homo sapiens, UniProt Q9NPD5); experiment: Inhibitory potency towards OATP1B3; type: in vitro ADME
T1 sequence (Q9NPD5 1-702): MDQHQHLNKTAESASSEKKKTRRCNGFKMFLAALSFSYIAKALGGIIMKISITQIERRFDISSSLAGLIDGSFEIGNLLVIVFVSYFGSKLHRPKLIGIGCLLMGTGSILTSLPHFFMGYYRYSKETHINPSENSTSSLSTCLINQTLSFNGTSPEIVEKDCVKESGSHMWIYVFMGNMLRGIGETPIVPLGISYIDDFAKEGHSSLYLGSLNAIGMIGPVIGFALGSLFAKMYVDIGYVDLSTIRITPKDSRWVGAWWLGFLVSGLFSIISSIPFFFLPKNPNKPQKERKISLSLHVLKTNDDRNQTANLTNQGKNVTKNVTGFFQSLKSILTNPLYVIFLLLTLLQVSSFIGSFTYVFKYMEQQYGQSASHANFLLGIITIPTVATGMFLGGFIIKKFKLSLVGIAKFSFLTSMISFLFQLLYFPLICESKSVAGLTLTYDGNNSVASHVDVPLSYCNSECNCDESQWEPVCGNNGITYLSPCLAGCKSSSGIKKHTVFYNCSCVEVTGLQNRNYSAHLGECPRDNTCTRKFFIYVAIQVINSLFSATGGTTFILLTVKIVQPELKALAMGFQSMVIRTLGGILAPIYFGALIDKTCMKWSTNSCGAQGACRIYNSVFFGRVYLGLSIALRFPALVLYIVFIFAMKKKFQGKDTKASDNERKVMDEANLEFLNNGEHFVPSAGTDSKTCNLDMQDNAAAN

[2] = Phase I DDI study with aspirin; type: in vivo, human; settings: with aspirin 500 mg vs vericiguat 15 mg SD alone, fasting
[3] = cited from earlier work
UGT2B7 = biological target: T2, UGT2B7 (Homo sapiens, UniProt P16662); experiment: Inhibitory potency towards UGT isoforms: UGT2B7; type: in vitro ADME
T2 sequence (P16662 24-529): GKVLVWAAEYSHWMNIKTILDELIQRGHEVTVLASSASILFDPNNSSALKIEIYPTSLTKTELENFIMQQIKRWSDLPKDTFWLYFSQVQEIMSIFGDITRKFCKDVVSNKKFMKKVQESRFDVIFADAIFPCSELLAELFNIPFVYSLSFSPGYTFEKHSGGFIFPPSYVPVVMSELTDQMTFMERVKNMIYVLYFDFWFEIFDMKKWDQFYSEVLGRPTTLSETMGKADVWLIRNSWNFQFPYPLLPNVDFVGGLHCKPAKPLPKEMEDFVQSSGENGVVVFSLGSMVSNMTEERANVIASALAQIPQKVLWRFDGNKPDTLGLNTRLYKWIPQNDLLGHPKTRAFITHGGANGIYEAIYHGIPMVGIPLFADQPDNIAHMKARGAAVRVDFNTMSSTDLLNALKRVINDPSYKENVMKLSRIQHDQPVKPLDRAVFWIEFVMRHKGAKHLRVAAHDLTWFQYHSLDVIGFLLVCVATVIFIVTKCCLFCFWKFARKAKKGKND

MATE2K = MATE2K (Homo sapiens, UniProt Q86VL8); experiment: Inhibitory potency towards MATE2K; type: in vitro ADME
Sequence of MATE2K (Q86VL8 1-566 isoform Q86VL8-3): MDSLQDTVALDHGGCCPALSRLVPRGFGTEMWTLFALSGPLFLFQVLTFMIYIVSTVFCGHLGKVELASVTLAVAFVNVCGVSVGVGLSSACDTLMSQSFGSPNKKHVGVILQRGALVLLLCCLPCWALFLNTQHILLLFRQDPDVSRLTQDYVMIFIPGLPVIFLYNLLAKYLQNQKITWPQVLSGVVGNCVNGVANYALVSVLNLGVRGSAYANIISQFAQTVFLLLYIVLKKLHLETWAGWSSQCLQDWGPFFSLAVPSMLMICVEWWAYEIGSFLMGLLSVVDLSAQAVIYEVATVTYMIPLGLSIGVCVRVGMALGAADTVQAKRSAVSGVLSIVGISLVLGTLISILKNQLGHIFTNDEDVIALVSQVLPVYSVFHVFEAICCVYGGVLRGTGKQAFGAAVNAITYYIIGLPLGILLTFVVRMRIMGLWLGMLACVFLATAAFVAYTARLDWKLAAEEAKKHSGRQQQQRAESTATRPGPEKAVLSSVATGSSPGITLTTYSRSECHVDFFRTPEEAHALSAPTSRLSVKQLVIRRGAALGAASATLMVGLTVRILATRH

[4] = test system: major cytochrome P450 (CYP) isoforms; settings: human liver microsomes; cited from earlier work
[5] = biological target: T3, organic cation transporter 2 (Homo sapiens, UniProt O15244); experiment: Inhibitory potency towards OCT2; type: in vitro ADME
T3 sequence (O15244 1-555): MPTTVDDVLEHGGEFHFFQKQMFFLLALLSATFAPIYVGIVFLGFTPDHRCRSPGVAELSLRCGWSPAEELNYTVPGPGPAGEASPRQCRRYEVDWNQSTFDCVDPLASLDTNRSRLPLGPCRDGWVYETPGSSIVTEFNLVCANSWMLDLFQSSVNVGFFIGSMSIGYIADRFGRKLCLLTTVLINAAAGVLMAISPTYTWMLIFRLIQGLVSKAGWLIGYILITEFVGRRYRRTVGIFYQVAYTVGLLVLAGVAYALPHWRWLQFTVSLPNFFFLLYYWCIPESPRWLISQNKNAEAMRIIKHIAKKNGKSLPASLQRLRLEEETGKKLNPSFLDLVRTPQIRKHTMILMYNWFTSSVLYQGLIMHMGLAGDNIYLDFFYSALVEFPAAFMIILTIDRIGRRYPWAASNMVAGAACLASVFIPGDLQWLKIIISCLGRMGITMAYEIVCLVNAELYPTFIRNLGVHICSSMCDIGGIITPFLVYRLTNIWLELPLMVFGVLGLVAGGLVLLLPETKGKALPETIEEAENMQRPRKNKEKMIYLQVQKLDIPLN

OAT1 = biological target: T4, OAT1 (Homo sapiens, UniProt Q4U2R8); experiment: Inhibitory potency towards OAT1; type: in vitro ADME
T4 sequence (Q4U2R8 1-563): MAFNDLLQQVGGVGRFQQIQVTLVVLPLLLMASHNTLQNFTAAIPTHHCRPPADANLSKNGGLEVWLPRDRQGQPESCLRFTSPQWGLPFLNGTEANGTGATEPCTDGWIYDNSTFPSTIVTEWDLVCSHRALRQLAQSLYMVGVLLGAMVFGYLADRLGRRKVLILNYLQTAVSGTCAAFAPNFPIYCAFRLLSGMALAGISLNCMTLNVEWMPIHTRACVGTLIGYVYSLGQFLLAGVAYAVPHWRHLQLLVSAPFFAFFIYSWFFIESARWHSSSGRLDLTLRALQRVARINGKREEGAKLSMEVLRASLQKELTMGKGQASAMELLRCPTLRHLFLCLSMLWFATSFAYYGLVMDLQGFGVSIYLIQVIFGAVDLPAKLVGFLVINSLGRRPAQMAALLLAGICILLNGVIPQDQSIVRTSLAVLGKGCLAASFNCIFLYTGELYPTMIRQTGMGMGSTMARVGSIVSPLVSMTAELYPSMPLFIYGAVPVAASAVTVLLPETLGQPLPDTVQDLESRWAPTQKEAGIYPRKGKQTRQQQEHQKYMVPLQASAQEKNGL

[6] = with sildenafil 100 mg vs without, vericiguat 10 mg QD, fed

- Decrease in vericiguat exposure (differences in PK parameters) ([1]; co-administration with sildenafil 50 mg): less than 9%
- AUC0–24,md of vericiguat, point estimate of treatment ratio [1, 6]: 0.993
- Cmax,md of vericiguat, point estimate of treatment ratio [1, 6]: 0.970
- IC50 (OATP1B3): ~30 µM
- AUC of vericiguat, point estimate of treatment ratio [2]: 0.949
- Cmax of vericiguat, point estimate of treatment ratio [2]: 0.933
- IC50 (UGT2B7): > 50 µM
- IC50 (MATE2K): > 10 µM
- IC50 [5]: > 5 µM
- IC50 (OAT1): > 5 µM
Compound: COC(=O)Nc1c(N)nc(-c2nn(Cc3ccccc3F)c3ncc(F)cc23)nc1N [Vericiguat]
- Permeability [3]: highly permeable
- Solubility [3]: low-soluble
- Inhibitory effects on major cytochrome P450 (CYP) isoforms [4]: no inhibitory effects
